{"source": "patent US12115178B2", "about": "“Acylated active agents and methods of their use for the treatment of autoimmune disorders” (Flagship Pioneering Innovations V, Inc., priority 2018, dated 2024)", "assay_type_in_all_cases": "in vitro ADME", "key": {"[1]": {"test": "Assay 2. Stability in Simulated Intestinal Fluid (SIF)", "settings": "SIF pH 6.7 with pancreatin, 1 μM, 37° C.", "procedure": "Assay 2. Stability of acylated active agents in Simulated Intestinal Fluid (SIF). This assay was used to assess the stability of an acylated active agent in a small intestine. Phosphate buffer was prepared by dissolving 0.42 g of sodium hydroxide pellets and 3.95 g of monobasic sodium phosphate monohydrate and 6.19 g of sodium chloride in ultrapure water (MilliQ®, Millipore Sigma, Darmstadt, Germany). The pH was adjusted to 6.7 using aq. HCl and aq. NaOH, as necessary, and the solution was diluted with ultrapure water to produce 1 L of the pH 6.7 buffer. 112 mg FaSSIF powder (Biorelevant™, London, UK) was dissolved in 50 mL of the pH 6.7 buffer. 2 to 3 mL of the resulting solution were then added to 500 mg pancreatin (Millipore Sigma, Darmstadt, Germany). The resulting mixture was agitated by finger tapping the vessel containing the mixture until milky suspension formed. At this time, the remainder of the 50 mL FaSSiF/pH 6.7 buffer solution was added. The resulting suspension was flipped upside down 10 times to produce SIF, which was used fresh. Test compounds were dissolved in DMSO stock to 1 mM. An aliquot of the DMSO stock solution was removed and diluted in the SIF media in 15 mL falcon tubes to produce a mixture with a tested compound concentration of 1 μM. A 1 mL aliquot was immediately removed and diluted once with 1 volume of acetonitrile for T0 timepoint. The mixture was sealed and agitated at 37° C. in an incubator. Aliquots (1 mL) were removed at regular intervals and immediately quenched by the addition of 1 volume of acetonitrile. The resulting samples were analyzed by LC/MS to determine degradation rates."}, "[2]": {"test": "Assay 3. In vitro Colonic Material Stability Assay", "procedure": "Assay 3. In vitro Colonic Material Stability Assay. This assay was used to assess the stability of an acylated active agent in a large intestine. All experiments were performed in an anaerobic chamber containing 90% nitrogen, 5% hydrogen and 5% carbon dioxide. Colonic material was resuspended as a slurry (15% w/v final concentration) in pre-reduced, anaerobically sterilized dilution blanks (Anaerobe Systems AS-908). The colonic material was then inoculated into 96 well plates containing YCFAC media (Anaerobe Systems AS-680) or other suitable media (6.7 μL slurry into 1 mL total media). Compounds or groups of compounds were added to each individual well to reach a final analyte concentration of 1 or 10 μM, and the material was mixed by pipetting. Sample was removed after set timepoints (0, 120, 240, 480, 1440, 2880 minutes after initiation of the assay), quenched with acetonitrile containing internal standard, and analyzed by LC/MS."}, "[3]": {"test": "Assay 1. Stability in Simulated Gastric Fluid (SGF)", "settings": "SGF pH 1.6 with pepsin, 1 μM, 37° C.", "procedure": "Assay 1. Stability of acylated active agents in Simulated Gastric Fluid (SGF). This assay was used to assess the stability of an acylated active agent in a stomach.\nMedium was prepared by dissolving 2 g of sodium chloride in 0.6 L in ultrapure water (MilliQ®, Millipore Sigma, Darmstadt, Germany). The pH was adjusted to 1.6 with 1N hydrochloric acid, and the volume was then adjusted to 1 L with purified water.\n60 mg FaSSIF powder (Biorelevant™, London, UK) were dissolved in 500 mL buffer (above). Pepsin was added (0.1 mg/mL) (Millipore Sigma, Darmstadt, Germany), and the solution was stirred. The resulting SGF media were used fresh for each experiment.\nTest compounds were dissolved in DMSO stock to 1 mM. An aliquot of the DMSO stock solution was removed and diluted in the SGF Media in 15 mL falcon tubes to generate a total compound concentration of 1 μM. A 1 mL aliquot was immediately removed and diluted once with 1 volume of acetonitrile for T0 timepoint. The mixture was sealed and mixed at 37° C. in an incubator. Aliquots (1 mL) were removed at regular intervals and immediately quenched by the addition of 1 volume of acetonitrile. The resulting samples were analyzed by LC/MS to determine degradation rates in SGF."}, "[4]": {"settings": "colonic material slurry, anaerobic, 1 or 10 μM"}}}
{"compound": "CCCC(=O)Oc1cc(OC(=O)CCC)c2c(c1)O[C@H](c1cc(OC(=O)CCC)c(OC(=O)CCC)c(OC(=O)CCC)c1)[C@H](OC(=O)c1cc(OC(=O)CCC)c(OC(=O)CCC)c(OC(=O)CCC)c1)C2", "note": "[Compound 1, [(2R,3R)-5,7-di(butanoyloxy)-2-[3,4,5-tri(butanoyloxy)phenyl]chroman-3-yl] 3,4,5-tri(butanoyloxy)benzoate]", "values": [{"measurement": "Assay 2 (SIF) (% @ Remaining 4 hours)", "setting": "[1]", "result": "C (>75% of the tested compound remaining)"}, {"measurement": "Assay 3 (% Remaining at 24 h)", "setting": "[2]; [4]", "result": "B (25-75% of the tested compound remaining)"}]}
{"compound": "CCC(=O)O[C@@H]1[C@H](OC(=O)CC)C=C(C(=O)O)C[C@H]1OC(=O)CC", "note": "[Compound 217, (3R,4S,5R)-3,4,5-tris(propanoyloxy)cyclohex-1-ene-1-carboxylic acid]", "values": [{"measurement": "Assay 3 (% Remaining at 24 h)", "setting": "[2]; [4]", "result": "B (25-75% of the tested compound remaining)"}]}
{"compound": "O=C(CCc1c[nH]c2ccccc12)Oc1ccc2c(c1)oc(=O)c1cc(OC(=O)CCc3c[nH]c4ccccc34)c(OC(=O)CCc3c[nH]c4ccccc34)cc12", "note": "[Compound 208, 8,9-bis({[3-(1H-indol-3-yl)propanoyl]oxy})-6-oxo-6H-benzo[c]chromen-3-yl 3-(1H-indol-3-yl)propanoate]", "values": [{"measurement": "Assay 2 (SIF) (% @ Remaining 4 hours)", "setting": "[1]", "result": "B (25-75% of the tested compound remaining)"}, {"measurement": "Assay 3 (% Remaining at 24 h)", "setting": "[2]; [4]", "result": "B (25-75% of the tested compound remaining)"}]}
{"compound": "[2H]C([2H])([2H])C([2H])([2H])CC(=O)O[C@@H]1[C@@H](OC(=O)CC([2H])([2H])C([2H])([2H])[2H])[C@H](Oc2ccc(N)cc2C(=O)O)OC[C@H]1O", "note": "[Compound 192, 5-amino-2-{[(2S,3R,4S,5R)-3,4-bis[(3,3,4,4,4-^2H5)butanoyloxy]-5-hydroxyoxan-2-yl]oxy}benzoic acid]", "values": [{"measurement": "Assay 3 (% Remaining at 24 h)", "setting": "[2]; [4]", "result": "B (25-75% of the tested compound remaining)"}]}
{"compound": "O=C(CCc1c[nH]c2ccccc12)O[C@H]1OC[C@@H](OC(=O)CCc2c[nH]c3ccccc23)[C@@H](OC(=O)CCc2c[nH]c3ccccc23)[C@H]1OC(=O)CCc1c[nH]c2ccccc12", "note": "[Compound 150, (2R,3R,4R,5R)-3,4,5-tris({[3-(1H-indol-3-yl)propanoyl]oxy})oxan-2-yl 3-(1H-indol-3-yl)propanoate]", "values": [{"measurement": "Assay 2 (SIF) (% @ Remaining 4 hours)", "setting": "[1]", "result": "A (<25% of the tested compound remaining)"}, {"measurement": "Assay 3 (% Remaining at 24 h)", "setting": "[2]; [4]", "result": "A (<25% of the tested compound remaining)"}]}
{"compound": "[2H]C([2H])([2H])C([2H])([2H])CC(=O)O[C@@H]1[C@@H](OC(=O)CC([2H])([2H])C([2H])([2H])[2H])[C@H](Oc2ccc(N)cc2C(=O)O)OC[C@H]1OC(=O)CC([2H])([2H])C([2H])([2H])[2H]", "note": "[Compound 189, 5-amino-2-{[(2S,3R,4S,5R)-3,4,5-tris[(3,3,4,4,4-^2H5)butanoyloxy]oxan-2-yl]oxy}benzoic acid]", "values": [{"measurement": "Assay 3 (% Remaining at 24 h)", "setting": "[2]; [4]", "result": "B (25-75% of the tested compound remaining)"}]}
{"compound": "CCCC(=O)OC[C@H]1O[C@@H](OC)[C@H](OC(=O)CCC)[C@@H](OC(=O)CCC)[C@@H]1OC(=O)CCC", "note": "[Compound 58, [(2R,3R,4S,5R,6R)-3,4,5-tris(butanoyloxy)-6-methoxyoxan-2-yl]methyl butanoate]", "values": [{"measurement": "Assay 2 (SIF) (% @ Remaining 4 hours)", "setting": "[1]", "result": "A (<25% of the tested compound remaining)"}, {"measurement": "Assay 3 (% Remaining at 24 h)", "setting": "[2]; [4]", "result": "A (<25% of the tested compound remaining)"}]}
{"compound": "CCCC(=O)OC[C@H]1O[C@H](OC)[C@H](OC(=O)CCC)[C@@H](OC(=O)CCC)[C@H]1OC(=O)CCC", "note": "[Compound 56, [(2R,3S,4S,5R,6S)-3,4,5-tris(butanoyloxy)-6-methoxyoxan-2-yl]methyl butanoate]", "values": [{"measurement": "Assay 2 (SIF) (% @ Remaining 4 hours)", "setting": "[1]", "result": "A (<25% of the tested compound remaining)"}, {"measurement": "Assay 3 (% Remaining at 24 h)", "setting": "[2]; [4]", "result": "A (<25% of the tested compound remaining)"}]}
{"compound": "CCCC(=O)Oc1cc(OC(=O)CCC)c2c(c1)O[C@H](c1cc(OC(=O)CCC)c(OC(=O)CCC)c(OC(=O)CCC)c1)[C@H](OC(=O)c1cc(OC(=O)CCC)c(OC(=O)CCC)c(OC(=O)CCC)c1)C2", "note": "[Compound 198, [(2R,3R)-5,7-di(butanoyloxy)-2-[3,4,5-tri(butanoyloxy)phenyl]chroman-3-yl] 3,4,5-tri(butanoyloxy)benzoate]", "values": [{"measurement": "Assay 3 (% Remaining at 24 h)", "setting": "[2]; Run 1, colonic material", "result": "C (>75% of the tested compound remaining)"}, {"measurement": "Assay 3 (% Remaining at 24 h)", "setting": "[2]; Run 2, colonic material", "result": "C (>75% of the tested compound remaining)"}, {"measurement": "Assay 3 (% Remaining at 24 h)", "setting": "[2]; Run 3, colonic material", "result": "B (25-75% of the tested compound remaining)"}]}
{"compound": "CCCC(=O)O[C@@H]1[C@H](OC(=O)CCC)C=C(C(=O)O)C[C@H]1OC(=O)CCC", "note": "[Compound 218, (3R,4S,5R)-3,4,5-tris(butanoyloxy)cyclohex-1-ene-1-carboxylic acid]", "values": [{"measurement": "Assay 3 (% Remaining at 24 h)", "setting": "[2]; [4]", "result": "B (25-75% of the tested compound remaining)"}]}
{"compound": "CC(=O)O[C@@H]1[C@H](OC(C)=O)C=C(C(=O)O)C[C@H]1OC(C)=O", "note": "[Compound 215, (3R,4S,5R)-3,4,5-triacetoxycyclohex-1-ene-1-carboxylic acid]", "values": [{"measurement": "Assay 3 (% Remaining at 24 h)", "setting": "[2]; [4]", "result": "B (25-75% of the tested compound remaining)"}]}
{"compound": "CC(=O)Oc1cc(OC(C)=O)c2c(c1)O[C@H](c1cc(OC(C)=O)c(OC(C)=O)c(OC(C)=O)c1)[C@H](OC(=O)c1cc(OC(C)=O)c(OC(C)=O)c(OC(C)=O)c1)C2", "note": "[Compound 197, [(2R,3R)-5,7-diacetoxy-2-(3,4,5-triacetoxyphenyl)chroman-3-yl] 3,4,5-triacetoxybenzoate]", "values": [{"measurement": "Assay 3 (% Remaining at 24 h)", "setting": "[2]; [4]", "result": "A (<25% of the tested compound remaining)"}]}
{"compound": "CCC(=O)OC1OC[C@@H](OC(=O)CC)[C@H](OC(=O)CC)[C@H]1OC(=O)CC", "note": "(stereo partly drawn) [Compound 130, (3R,4S,5R)-3,4,5-tris(propanoyloxy)oxan-2-yl propanoate]", "values": [{"measurement": "Assay 1 (SGF) (% Remaining @ 1 hour)", "setting": "[3]", "result": "C (>75% of the tested compound remaining)"}, {"measurement": "Assay 2 (SIF) (% @ Remaining 4 hours)", "setting": "[1]", "result": "A (<25% of the tested compound remaining)"}]}
{"compound": "CCCC(=O)Oc1ccc2c(c1)oc(=O)c1cc(OC(=O)CCC)c(OC(=O)CCC)cc12", "note": "[Compound 210, 8,9-bis(butanoyloxy)-6-oxo-6H-benzo[c]chromen-3-yl butanoate]", "values": [{"measurement": "Assay 3 (% Remaining at 24 h)", "setting": "[2]; [4]", "result": "A (<25% of the tested compound remaining)"}]}
{"compound": "CCCC(=O)Oc1cc(OC(=O)CCC)c2c(=O)c(OC(=O)CCC)c(-c3ccc(OC(=O)CCC)c(OC(=O)CCC)c3)oc2c1", "note": "[Compound 181, [2-butanoyloxy-4-[3,5,7-tri(butanoyloxy)-4-oxo-chromen-2-yl]phenyl] butanoate]", "values": [{"measurement": "Assay 1 (SGF) (% Remaining @ 1 hour)", "setting": "[3]", "result": "C (>75% of the tested compound remaining)"}, {"measurement": "Assay 2 (SIF) (% @ Remaining 4 hours)", "setting": "[1]", "result": "A (<25% of the tested compound remaining)"}]}
{"compound": "CCC(=O)OC[C@H]1OC(O)[C@H](OC(=O)CC)[C@@H](OC(=O)CC)[C@@H]1OC(=O)CC", "note": "(stereo partly drawn) [Compound 110, [(2R,3R,4S,5R)-6-hydroxy-3,4,5-tris(propanoyloxy)oxan-2-yl]methyl propanoate]", "values": [{"measurement": "Assay 1 (SGF) (% Remaining @ 1 hour)", "setting": "[3]", "result": "C (>75% of the tested compound remaining)"}, {"measurement": "Assay 2 (SIF) (% @ Remaining 4 hours)", "setting": "[1]", "result": "A (<25% of the tested compound remaining)"}]}
{"compound": "C[C@@H]1OC(OC(=O)CCc2c[nH]c3ccccc23)[C@H](OC(=O)CCc2c[nH]c3ccccc23)[C@H](OC(=O)CCc2c[nH]c3ccccc23)[C@H]1OC(=O)CCc1c[nH]c2ccccc12", "note": "(stereo partly drawn) [Compound 147, (3R,4R,5S,6S)-3,4,5-tris({[3-(1H-indol-3-yl)propanoyl]oxy})-6-methyloxan-2-yl 3-(1H-indol-3-yl)propanoate]", "values": [{"measurement": "Assay 3 (% Remaining at 24 h)", "setting": "[2]; [4]", "result": "A (<25% of the tested compound remaining)"}]}
{"compound": "CCC(=O)O[C@@H]1[C@@H](OC(=O)CC)[C@H](Oc2ccccc2C(=O)O)OC[C@@H]1OC(=O)CC", "note": "[Compound 26, 2-(((2S,3R,4S,5S)-3,4,5-tris(propionyloxy)tetrahydro-2H-pyran-2-yl)oxy)benzoic acid]", "values": [{"measurement": "Assay 1 (SGF) (% Remaining @ 1 hour)", "setting": "[3]", "result": "C (>75% of the tested compound remaining)"}, {"measurement": "Assay 2 (SIF) (% @ Remaining 4 hours)", "setting": "[1]", "result": "A (<25% of the tested compound remaining)"}]}
